Measured values reported in article PMC10435460, “Ligand recognition and G protein coupling of the human itch receptor MRGPRX1” (Nature Communications, 2023).
Read-outs that look alike come from different tables or passages of the source. Ends that are not written are not given here.

What was measured:
[1] = target: T1, MRGPRX1 (Homo sapiens, UniProt Q96LB2); assay type: cell-based; set-up: Emax: unit not given here; settings: for Δpec50: Fig 3d, CNF-Tx2 mutant peptide vs CNF-Tx2 WT; for Emax: Suppl Fig 9a, CNF-Tx2 WT and mutant peptides
T1 construct: we fused a BRIL tag at the N-terminus of full-length wild-type MRGPRX1; FLAG; expressed in transfected cells; host or cells: HEK293
Description: (§1) Human Embryonic Kidney 293 (HEK293) cells were obtained from the Cell Resource Center of Shanghai Institute for Biological Sciences (Chinese Academy of Sciences, Shanghai, China) and cultured in DMEM with 10% FBS for functional studies. Transient transfection in the current study was performed with Lipofectamine 2000 (Invitrogen), according to the manufacturer’s instructions. For studying the peptide-induced G-protein activation through MRGPRX1, G-protein BRET probes were generated according to previous publications[13],[30],[31]. HEK293 cells were transfected with plasmids MRGPRX1 and G-protein probes. After 24 h, cells were reseeded into a 96-well plate with a density of 30,000-50,000 cells per well and incubated for an additional 24 h at 37 °C. For peptide-stimulated activity measurement, the BRET signal between Rluc8 and GFP2 was recorded after the addition of peptide ligands (final concentration:10^−10 – 10^−3 M) and coelenterazine 400a. The BRET signal was calculated as the ratio of the GFP2 emission to the Rluc8 emission.

[2] = system: MRGPRX2; assay: Gαi-Gγ dissociation assay (BRET); assay type: cell-based, human; settings: Fig 1e
Source text: Fig. 1 Cryo-EM structure of MRGPRX1-Gi1/Gq complexes. a Cryo-EM density map of the BAM8-22-MRGPRX1-Gi1/Gq complexes and CNF-Tx2-MRGPRX1-Gi1 complex. b EM density maps of BAM8-22 in MRGPRX1-Gi1/Gq complexes and CNF-Tx2 in MRGPRX1-Gi1 complex. BAM8-22 in MRGPRX1-Gi1/Gq complexes, hot pink/cyan; CNF-Tx2, light pink; MRGPRX1, cornflower blue, salmon, and medium aquamarine from left to right; Gαi, dark orange; Gαq, yellow; Gβ, wheat; Gγ, light blue; scFv16 (single-chain variable fragment), gray. c Cut-away view of the ligand-binding pocket in the BAM8-22-MRGPRX1-Gi1/Gq, CNF-Tx2-MRGPRX1-Gi1, PAMP-12-MRGPRX2-Gi1 and KCA-CB1-Gi1 complexes. d The binding modes of the peptide agonists of MRGPRX1 compared with MRGPRX2. e The selectivity of different ligands for MRGPRX1 and MRGPRX2 was evaluated using Gαi-Gγ dissociation assay. Data are mean ± SEM of three independent experiments (n = 3). ΔBRET indicates the difference between the BRET signal recorded from cells treated with ligand and that from cells treated with vehicle.
Human Embryonic Kidney 293 (HEK293) cells were obtained from the Cell Resource Center of Shanghai Institute for Biological Sciences (Chinese Academy of Sciences, Shanghai, China) and cultured in DMEM with 10% FBS for functional studies. […] The BRET signal was calculated as the ratio of the GFP2 emission to the Rluc8 emission.

[3] = target: T1, MRGPRX1; assay: Ligand bias factor (β value), Gi vs Gq, BAM8-22 as reference; assay type: cell-based; settings: Suppl Fig 11f-h
Description: as §1, with “emission. […]” for “emission.”
are presented as the mean ± SEM (n=3). All data were analyzed by two-sided one-way ANOVA with Turkey test. […] Both CNF-Tx2 and Chloroquine were assessed for Gi signaling (f) and Gq signaling (g). The bias factor (β value) of CNF-Tx2 and Chloroquine was calculated using BAM8-22 as the reference.
R3c). The β value was calculated according to formulas. […]

T1 sequence (Q96LB2 whole entry, the tested form may be a part): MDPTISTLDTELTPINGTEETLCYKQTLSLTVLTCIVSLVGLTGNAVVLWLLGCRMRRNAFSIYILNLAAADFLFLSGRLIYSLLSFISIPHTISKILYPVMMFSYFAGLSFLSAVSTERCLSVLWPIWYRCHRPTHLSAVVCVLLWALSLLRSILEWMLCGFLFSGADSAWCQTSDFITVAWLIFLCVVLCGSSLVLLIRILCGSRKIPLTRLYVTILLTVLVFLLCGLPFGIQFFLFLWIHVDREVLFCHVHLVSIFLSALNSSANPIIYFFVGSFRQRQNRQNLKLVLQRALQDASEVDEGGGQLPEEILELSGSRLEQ

“HSGILLAWSGPRNRAVRI-NH2 (C-terminus assumed) [F15A]” was tested, and the Δpec50 ([1]; replicate 2) was -6.871, the Δpec50 ([1]; replicate 3) was -1.837 and the Emax ([1]; replicate 1) was -0.06154. It also gave an Emax ([1]; replicate 3) of -0.06172.
With “bovine adrenal medulla peptide (BAM) 8-22 [BAM8-22]” the “recognition by MRGPRX2” value [2] was “cannot be recognized by MRGPRX2”.
With “HSGILLAWSGPRNRF-NH2 (C-terminus assumed) [ΔVRI]” the Δpec50 ([1]; replicate 2) was -0.3933, the Δpec50 ([1]; replicate 3) was -0.1993 and the Emax ([1]; replicate 1) was 5.805. For the same molecule, the Emax ([1]; replicate 2) was 0.1588, the Emax ([1]; replicate 3) was -0.003279 and the “effect of C-terminal truncation on MRGPRX1 activity” value ([1]; compared to CNF-Tx2 wide-type peptide, Fig R4) was “almost abolished the activity of MRGPRX1”.
With “Hemoglobin b-chain(34-42): hemoglobin β-chain fragment, peptide ligand of MRGPRX1 (VVYPWTQRF; UniProt P68871 34-42, looked up, fragment) [reference compound]” the “potency and efficacy at MRGPRX1” value ([1]; Suppl Fig 11c) was “reasonable potency and efficacy”.
With CCN(CC)CCCC(C)Nc1ccnc2cc(Cl)ccc12 (stereo not shown) [Chloroquine, chloroquine] the “bias property, Gi vs Gq” value [3] was “Gq bias ligand”.
